This note sets out measurements from US4470971A, “Renin inhibitory peptides having His^13” (Merck & Co., Inc., priority 1982, dated 1984).

Where a SMILES comes first, the peptide text is derived from it. [ ]: non-standard residue; d: D form. The star is where a group is joined. Sta = CC(C)C[C@H](N)[C@@H](O)CC(=O)O; Isovaleryl = CC(C)CC(=O)*; Isobutyryl = CC(C)C(=O)*

The assay addresses T1, Human renin (Homo sapiens, UniProt P00797).
T1 construct: Human plasma (lyophilized) was used as the source of human substrate and human renin; from tissue; host or cells: human plasma (lyophilized)
T1 sequence (P00797 67-406): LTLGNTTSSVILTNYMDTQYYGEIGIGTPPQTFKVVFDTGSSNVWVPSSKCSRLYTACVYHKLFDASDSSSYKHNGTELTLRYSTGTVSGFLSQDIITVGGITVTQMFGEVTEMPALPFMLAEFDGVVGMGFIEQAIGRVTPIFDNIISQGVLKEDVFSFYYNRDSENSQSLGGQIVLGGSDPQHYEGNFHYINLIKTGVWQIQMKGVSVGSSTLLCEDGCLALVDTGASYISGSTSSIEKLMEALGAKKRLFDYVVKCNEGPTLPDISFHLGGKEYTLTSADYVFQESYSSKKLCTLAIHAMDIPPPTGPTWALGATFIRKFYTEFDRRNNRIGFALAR
The experiment in a line: human renin assay, radioimmunoassay of angiotensin I in human plasma (Haber et al.). The assay is classed as biochemical. Conditions: for IC50: lyophilized human plasma as source of human substrate and human renin, read-out: I50 (M) Human renin. The protocol:
In order to illustrate the pig renin inhibition and human renin inhibition of the peptide inhibitor of Example 1, the peptide was evaluated in the pig renin inhibition assay described in Rich et al., J. Med. Chem. 23:27, 1980, and was further evaluated in the human renin assay based on the method of Haber et al., J. Clin. Endocrinol. 29:1349, 1969. The latter method employs a radioimmunoassay technique to measure the amount of angiotensin I product created by renin cleavage of its substrate. Human plasma (lyophilized) was used as the source of human substrate and human renin. I50 values were obtained by plotting data at several inhibitor concentrations.

For `CC(C)C[C@H](NC(=O)[C@H](Cc1c[nH]cn1)NC(=O)[C@H](Cc1ccccc1)NC(=O)[C@@H]1CCCN1C(=O)[C@H](Cc1c[nH]cn1)NC(=O)C(C)C)[C@@H](O)CC(=O)N[C@H](C(=O)N[C@@H](Cc1c[nH]cn1)C(=O)NCC(N)=O)C(C)C` [N-Isobutyryl-L-histidyl-L-prolyl-L-phenylalanyl-L-histidyl-(3S,4S)-statyl-L-valyl-L-histidyl-L-glycyl amide] (Isobutyryl-HPFH[Sta]VHG-NH2), the IC50 was 7.3e-08 M.

As a reminder, the inhibition is the share of the control response that was lost under treatment. Read a high inhibition as a response far below the control. `CC(C)CC(=O)N[C@H](C(=O)N[C@H](C(=O)N[C@@H](CC(C)C)[C@@H](O)CC(=O)N[C@@H](C)C(=O)N[C@@H](CC(C)C)[C@@H](O)CC(=O)O)C(C)C)C(C)C` [Pepstatin, iso-valeryl-Val--Val--Sta--Ala--Sta, reference compound] (Isovaleryl-VV[Sta]A[Sta]-OH) came in with an inhibition at 1 µM (at 1.0 × 10^-6 M) of 20%.

As for `CC[C@H](C)[C@H](NC(=O)C[C@H](O)[C@H](CC(C)C)NC(=O)[C@H](Cc1c[nH]cn1)NC(=O)[C@H](Cc1ccccc1)NC(=O)[C@@H]1CCCN1C(=O)[C@H](Cc1c[nH]cn1)NC(=O)CC(C)C)C(=O)N[C@@H](Cc1c[nH]cn1)C(N)=O` [iso-Valeryl-His-Pro-Phe-His-Sta-Ile-His-NH2] (Isovaleryl-HPFH[Sta]IH-NH2), the IC50 stood at 7.3e-09 M.
